Data reported in US10138292B2, “Cell culture medium” (BIOLAMINA AB, priority 2010, dated 2018).

What was measured:
[1] = test system: hES cells; assay: Cell survival assay, 24 hours (Example 2); assay type: cell-based, human
Experimental: The survival assay was performed as described for the cell adhesion assay above, except that the cells were left in the cell incubator for 24 hours. For inhibition of survival assay, the cells were kept in a medium with function blocking antibodies at the concentrations recommended by the manufacturer or pathway inhibitors at concentrations indicated in the text for 30 minutes, and then plated on the coated dishes. All the experiments were performed in quadruplicate.
Pluripotent hES cells express α1, α5, β1, β2 and γ1 laminin chains. To compare the adhesion and clonal survival of hES cells plated from single cell suspension to different coating substrata, hES cells growing as monolayers on LN-511 or as clusters on a feeder layer were trypsinized into single cell suspension in O3 medium and plated on cell culture dishes coated with Matrigel, LN-111, LN-511, LN-521 or a mixture of LN-511 and LN-521, in the absence or presence of a ROCK inhibitor (Y-27632) and analyzed after 24 hours.

[2] = test system: human ES cells; assay: Cell adhesion assay, 1 hour (Example 1); assay type: cell-based; conditions: O3 medium without any additives, without Y-27632
Experimental: (§1) Ninety-six-well tissue cell culture plates were coated overnight at 4° C. with sterile solutions of the ECM proteins mouse LN-111 (Invitrogen), human recombinant LN-511, and human recombinant LN-521, all at a concentration of 30 μg/ml (5 μg/cm^2). For control cells, BD Matrigel™ hESC qualified (BD Biosciences) was used according to the manufacturer's instructions.
(§2) The assay was performed as described (Extracellular Matrix Protocols, 2000). Briefly, 96-well plates were coated by extracellular matrix proteins as described above and blocked by O3 medium containing bovine serum albumin. The ES cells were plated at a cell density of 600 cell/mm^2 upon extracellular matrix-coated plates and were left to adhere for either 1 hour or 1 day at the cell incubator. Non-adherent cells were washed away, and adherent cells were fixed for 20 min by 5% glutaraldehyde, stained by 0.1% Crystal Violet.

[3] = test system: PI3K/Akt and MEK1/Erk pathways; assay: Western blot with antibodies to phospho-Akt / phospho-Erk; assay type: cell-based, human; conditions: data not shown
Experimental: HS 181 cells were trypsinized into single cell suspension as described above. For inhibition experiments, the cells were kept in O3 medium with blocking antibodies or pathway inhibitors for 30 minutes and then 450K cells were plated on 35 mm dishes precoated with the appropriate matrix coating. For other experiments, same number of cells was plated directly after trypsinization. In all cases the cells were allowed to spread for 1 hour at 37° C., 5% CO2. After two washings in ice-cold PBS, the plates with cells were snap frozen in liquid nitrogen and stored at −80° C. To prepare samples for western blots and ELISA, the plates were slowly thawed and kept on ice with 100-150 μl of lysis buffer (50 mM Tris-HCl, pH7.5, 150 mM NaCl, 0.5% deoxycholate, 0.5% SDS, 1% Triton X-100, 1% Igepal, Complete™ (Roche) and Phospho-Stop™ (Roche)) on top. Then, the cells were scraped, pipetted and sheared through a 27G ¾″ needle. After that, the cell pellets were clarified by centrifugation at 16,100 rcf for 15 minutes at 4° C. For western blots, 4-12% gradient gels were used for SDS electrophoresis and the proteins were transferred to PVDF membranes. The membrane was hybridized with the antibody of interest according to the manufacturer's instructions. […] For the densitometry analysis the films were scanned at 2,400 dpi and analyzed by the Chemilmager5500 program (1D-Multi Line densitometry mode). […]

[4] = test system: human ES cells; assay: Cell adhesion / single cell survival 1 day after plating (Example 1); assay type: cell-based; conditions: for adhesion at 1 day compared with dishes including the ROCK inhibitor: coating without additives
Experimental: as §1, §2

[5] = test system: phosphorylated myosin light chain (P-MLC); assay: Western blot of phosphorylated myosin light chain; assay type: cell-based, human; conditions: one and six hours after plating
Experimental: HS 181 cells were trypsinized into single cell suspension as described above. For inhibition experiments, the cells were kept in O3 medium with blocking antibodies or pathway inhibitors for 30 minutes and then 450K cells were plated on 35 mm dishes precoated with the appropriate matrix coating. For other experiments, same number of cells was plated directly after trypsinization. […] After two washings in ice-cold PBS, the plates with cells were snap frozen in liquid nitrogen and stored at −80° C. To prepare samples for western blots and ELISA, the plates were slowly thawed and kept on ice with 100-150 μl of lysis buffer (50 mM Tris-HCl, pH7.5, 150 mM NaCl, 0.5% deoxycholate, 0.5% SDS, 1% Triton X-100, 1% Igepal, Complete™ (Roche) and Phospho-Stop™ (Roche)) on top. Then, the cells were scraped, pipetted and sheared through a 27G ¾″ needle. After that, the cell pellets were clarified by centrifugation at 16,100 rcf for 15 minutes at 4° C. For western blots, 4-12% gradient gels were used for SDS electrophoresis and the proteins were transferred to PVDF membranes. The membrane was hybridized with the antibody of interest according to the manufacturer's instructions. Chemoluminescent HRP-substrate from Amersham Biosciences was used for visualization. For the densitometry analysis the films were scanned at 2,400 dpi and analyzed by the Chemilmager5500 program (1D-Multi Line densitometry mode). […]

[6] = test system: human ES and iPS cells; assay: Long-term self-renewal culture on LN-521 (Example 2); assay type: cell-based

Q: “LN-521: protein formed by joining α5, β2 and γ1 laminin chains; human recombinant, produced in HEK293 cells” was tested. Which “survival of Y-27632 treated cells compared with Matrigel” value ([1]; 10 μM of Y-27632, 40,000 cells per 1 cm^2) did it give?
A: survived better

Q: What about the “survival compared with LN-511” value ([1]; 24 hours, absence of ROCK inhibitor) of the same substance?
A: significantly higher

Q: What about the “survival after 24 hours relative to Matrigel” value ([1]; dissociated hES cells) of the same substance?
A: approximately 20 times

Q: And the “survival relative to Matrigel” value ([1]; exogenous bFGF removed from the O3 medium)?
A: 20 times

Q: And the “survival 24 hours after plating” value ([1]; medium lacking bFGF, LiCl, GABA, pipecolic acid and TGFβ)?
A: survived

Q: What about the “survival 24 hours after plating” value ([1]; single cell suspension, O3 medium, absence of ROCK inhibitor) of the same substance?
A: did so as single cells

Q: What about the “adhesion of human ES cells at 1 hour” value [2] of the same substance?
A: roughly the same

Q: What about the “PI3K/Akt pathway activity (phospho-Akt western blot)” value [3] of the same substance?
A: active

Q: What about the “adhesion at 1 day compared with dishes including the ROCK inhibitor” value [4] of the same substance?
A: similar

Q: What about the “adhesion at 1 day compared with dishes including the ROCK inhibitor” value ([4]; listed as LN-532) of the same substance?
A: no ROCK inhibitor is necessary

Q: And the “cells remaining attached / surviving 24 hours after plating” value ([4]; completely dissociated H5181 cells, O3 medium without any additives, no ROCK inhibitor)?
A: survived

Q: And the “adhesion at 1 day relative to Matrigel without additives” value ([4]; without additives)?
A: 20 times

Q: And the “phosphorylation of MLC compared with cells on Matrigel and LN-111” value [5]?
A: even higher

Q: And the passages cultured ([6]; ChiPSW cells, mTeSR1)?
A: 3 passages

Q: What about the passages cultured ([6]; CutB1.2 iPS cells, mTeSR1) of the same substance?
A: 5 passages

Q: What about the passages of proliferation ([6]; H1 cells, O3 medium (6 months)) of the same substance?
A: ≥ 15 passages

Q: What about the passages cultured ([6]; H1 cells, TeSR2 (5 months)) of the same substance?
A: 12 passages

Q: And the passages of proliferation ([6]; HS181 cells, O3 medium (9 months))?
A: at least 24 passages

Q: And the passages of proliferation ([6]; HS401 cells, O3 medium (2 months))?
A: ≥ 5 passages

Q: What about the passages cultured ([6]; HS401 cells, TeSR2 (1.5 months)) of the same substance?
A: 4 passages
